Article PMC4291531 (The Journal of Experimental Medicine, 2015)

T1: human MD-2 (Homo sapiens, UniProt Q9Y6Y9)
T1 sequence (Q9Y6Y9 19-160): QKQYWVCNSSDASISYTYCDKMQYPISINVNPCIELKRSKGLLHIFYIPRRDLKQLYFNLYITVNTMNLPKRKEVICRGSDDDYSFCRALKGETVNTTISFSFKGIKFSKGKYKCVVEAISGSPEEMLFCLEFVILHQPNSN


Key:
WT or MD-2 KO mice = test: APAP hepatotoxicity in WT or MD-2 KO mice; format: in vivo, mouse
human MD-2 = biological target: T1, human MD-2; test: SPR; format: binding; details: MD-2 coated on chip; for reduction in MD-2 binding as compared with disulfide HMGB1: SPR, HMGB1 isoforms
RAW 264.7 cells = test: TNF release from RAW 264.7 cells stimulated with HMGB1 isoforms; details: 1 µg/ml, 16 h, n = 3–5 experiments
[1] = biological target: human MD-2 (myeloid differentiation factor 2) (human) (UniProt Q9Y6Y9); test: SPR
[2] = test system: thioglycollate-elicited peritoneal macrophages (WT and MD-2 KO); format: cell-based; details: MD-2 KO vs WT macrophages; mouse cytokine antibody array
immune cells = details: ref Tang et al., 2012, Venereau et al.; cited from earlier work

sulfonyl HMGB1, sequence (P63159 whole entry): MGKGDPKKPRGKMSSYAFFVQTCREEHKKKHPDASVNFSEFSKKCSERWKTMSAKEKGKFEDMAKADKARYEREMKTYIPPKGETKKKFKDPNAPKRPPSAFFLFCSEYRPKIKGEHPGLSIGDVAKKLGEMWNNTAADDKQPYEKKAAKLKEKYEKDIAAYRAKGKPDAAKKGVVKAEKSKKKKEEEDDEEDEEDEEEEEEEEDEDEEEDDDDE

Molecule	reduction in MD-2 binding as compared with disulfide HMGB1 (human MD-2)	TNF release induced by HMGB1 isoform (RAW 264.7 cells)	extracellular chemokine/cytokine activity (in words) (immune cells)	further results
CC(=O)Nc1ccc(O)cc1 [APAP, acetaminophen]				serum HMGB1 levels, WT and MD-2 KO mice (WT or MD-2 KO mice; 24 h after APAP): comparably elevated in WT and MD-2 KO mice; APAP acute hepatic injury (GLDH, AST, ALT, necrosis), MD-2 KO vs WT (WT or MD-2 KO mice; APAP 400 mg/kg i.p., 24 h, n = 5–13 mice per group): significant reduction in acute hepatic injury; cytokine release and APAP-induced lethality, MD-2 KO vs WT (WT or MD-2 KO mice; APAP i.p. 400 mg/kg (serum, 24 h), 350 mg/kg (survival, n = 15)): significant reduction in cytokine (TNF and IL-6) release and APAP-induced animal lethality
H2S-modified HMGB1: HMGB1 S-sulfhydrated by incubation with 5 mM NaSH for 3 h at room temperature	> 1,000 fold	failed to induce TNF release		
disulfide HMGB1 (from UniProt P63159 1-215) (natural protein)				Kd [1]: 12 nM
disulfide HMGB1: recombinant cytokine-stimulating HMGB1; disulfide bond between cysteines 23 and 45 and reduced thiol on cysteine 106		induced TNF secretion	activates immune cells to produce cytokines/chemokines via the TLR4 receptor	MD-2 binding (in words) (human MD-2; SPR Biacore): binds to MD-2 with high affinity; release of IL-12/p40 stimulated with HMGB1 [2]: via an MD-2–independent mechanism
fully reduced HMGB1: HMGB1 with all cysteine residues reduced (DTT-reduced)	> 1,000 fold	failed to induce TNF release	binds to CXCL12 and stimulates immune cell infiltration via the CXCR4 receptor	
sulfonyl HMGB1 (from UniProt P63159 1-215) (natural protein)				fold reduction in MD-2 binding against disulfide HMGB1 [1]: > 1000 fold
sulfonyl HMGB1: HMGB1 with all cysteines terminally oxidized	> 1,000 fold	failed to induce TNF release	devoid of chemotactic and cytokine activities	
Hg-HMGB1: HMGB1 with mercury thiolate on cysteine at position 106 (protein, UniProt P09429 1-215, looked up, mercury thiolate on C106) High mobility group protein B1: MGKGDPKKPRGKMSSYAFFVQTCREEHKKKHPDASVNFSEFSKKCSERWKTMSAKEKGKFEDMAKADKARYEREMKTYIPPKGETKKKFKDPNAPKRPPSAFFLFCSEYRPKIKGEHPGLSIGDVAKKLGEMWNNTAADDKQPYEKKAAKLKEKYEKDIAAYRAKGKPDAAKKGVVKAEKSKKKKEEEEDEEDEEDEEEEEDEEDEDEEEDDDDE		Noncytokine-inducing		
